# Laboratory results: PMC3592886, “Utilization of Quantitative In Vivo Pharmacology Approaches to Assess Combination Effects of Everolimus and Irinotecan in Mouse Xenograft Models of Colorectal Cancer” (PLoS ONE, 2013)
# pIC50: −log10 of the molar value. Like-named read-outs stand apart in the source and are kept apart here. Marks after values point to notes of the source that are not given here.
# Legend:
# [1] = Irinotecan and SN-38 plasma PK model and simulations in mice; conditions: PK model parameter, fit to data of previous publications (37-39)
# Description: The pharmacokinetic models used for everolimus and irinotecan and SN38 in the above equations can be found in Supplement B. Data used to fit the everolimus pharmacokinetics was obtained in the study presented here. In the above equations, for irinotecan treatments, SN38 concentration was used to determine the effect since it is the active agent. The data used to fit the irinotecan and SN38 pharmacokinetics was obtained from previous publications (37-39).
# Irinotecan and SN-38 Plasma PK […]
# HT29 tumor xenografts = test: Therapeutic study and tumor growth modeling, HT29 tumor xenografts; format: in vivo, mice
# Procedure: (§1) For tumor bearing studies, cells were harvested and resuspended in a 1∶1 mixture of serum-free RPMI and Matrigel (BD Bioscience). One million cells were injected subcutaneously into each rear flank of mice. Tumor volumes, measured by digital calipers, were calculated by V (mm^3) = length x (width)^2 x 0.5236.
# (§2) When HT29 and HCT116 tumors reached an average volume of ∼325 mm^3 animals were randomized into four treatment groups (n = 9–10 mice per group): (i) vehicles, (ii) 5 mg/kg everolimus (RAD) by oral gavage (PO) daily, (iii) 10 mg/kg irinotecan (IRI) once weekly by intravenous (iv) tail vein injection, and (iv) a combination of RAD and IRI. Everolimus, diluted in sterile water, and irinotecan, diluted in sterile 0.9% saline, were administered at 4 mL/kg. Animals were treated for 28 days. Tumor volumes and body weights were measured 2–3 times weekly. On day 28 of treatment 3–6 animals per group were sacrificed, approximately 24 hours following everolimus treatment, and tumors harvested for metabolomic analysis.
# (§3) Data from the in vivo study was modeled to assess the therapeutic benefit of adding everolimus to irinotecan. The model used was similar to a previously published model for assessing combination therapy. Some modifications were made and details of the model can be found in Supplement S1 (section SA.3.) and Supplement S2. All modeling was performed on individual animal tumor volume data and modeled with SAAM II version 2.1. […]
# (§4) are presented in Tables 1 and 2 in Supplement B. Individual fits of the model to the data can also be found in Supplement B. The average growth terms for each tumor type were then fixed at the average parameter value and used to determine the single agent effects (kx) of each compound by fitting the following equation: […] where cx(t) is the concentration of drug x with respect to time. Individual tumors were modeled and the average value of kx determined (Supplement B Tables 1 & 2) for each single agent treatment. This value was used to fit the following equation to the combination tumor growth data to determine the degree of interaction between the two drugs.
# (§5) , the interaction term, was determined for each individual tumor for each tumor type and the data is presented in Table 2 in the main text and individual fits can be found in Supplement B.
# (§6) We determined that values greater than 1.3 are synergistic, between 1.3 and 0.7 are additive, between 0.7 and 0 are less than additive, and negative values for are antagonistic. These ranges were selected based on the model fits. The CV% for the model fits ranged from 15 to 50 with an average CV% of approximately 30%. Therefore we assume an average variance of 30% making the additive range from 1.3 to 0.7 (1 + 30% and 1- 30%). […]
# HT29 tumors = test: NMR-based metabolomics of HT29 tumors; format: in vivo, mice; conditions: end of study
# Procedure: as §2
# For metabolomic analysis, animals were fasted for 4 hours then received 250 mg/kg of [1-^13C] glucose (Cambridge Isotopes, Cambridge, MA) by IV injection 60 minutes prior to tumor harvesting. Snap-frozen tumor specimens underwent two-phase acid extraction procedure (using 8% perchloric acid) previously established and extensively published [19]–[22]. Further details may also be found in Supplement S1 (section SA.2.).
# HCT116 tumor xenografts = test: Therapeutic study and tumor growth modeling, HCT116 tumor xenografts; format: in vivo, mice
# Procedure: as §1, §2, §3, §4, §5, §6
# [2] = SN38, mice; cited from earlier work
# cleaved PARP = test: Western blot, cleaved PARP in CRC cell lines; format: cell-based
# Procedure: (§7) Cells were seeded into 6-well plates 24 hours prior to treatment with each drug alone or in combination for 24 hours. Cells were scraped into RIPA buffer containing protease inhibitors, EDTA, NaF, and sodium orthovanadate. Total protein was determined using the Pierce 660 nm Protein Assay (Pierce, Rockford, IL). Thirty micrograms of total protein was loaded onto a 4–12% gradient gel, electrophoresed and transferred to nitrocellulose using the iBlot system (Invitrogen, Carlsbad, CA). Membranes were blocked for one hour at room temperature with Licor Blocking Buffer (Licor, Lincoln, NE) prior to overnight incubation at 4°C with one of the following antibodies: pS6RP, tS6RP, pAKT, tAKT, pERK, tERK, p21, PARP, actin and α-tubulin (Cell Signaling, Beverly, MA). All antibodies were used at a 1∶1000 dilution except for pERK, which was used at 1∶2000. Following primary antibody incubation, blots were washed in TBS-Tween(0.1%), then incubated with the appropriate secondary antibody at 1∶15,000 (Licor, Lincoln, NE) for one hour at room temperature. After three additional washes, blots were developed using the Licor Odyssey (Licor, Lincoln, NE).
# HCT8 cells = test: Sulforhodamine B (SRB) anti-proliferation assay, HCT8; format: cell-based; conditions: RAD (20 nM), SN38 (4 nM) or the combination of the two, Figure 2
# Procedure: (§8) Cytoxic effects were determined using the sulforhodamine B (SRB) assay. Briefly, 5000 viable cells were plated into 96-well plates and incubated overnight prior to exposure with different concentrations of drugs. Cells were exposed to increasing concentrations of everolimus (0–200 nM), SN38 (0–8 nM), and combinations of the two. Following a 72 hour incubation, media was removed and cells were fixed with cold 10% trichloroacetic acid for 30 minutes at 4° C. Cells were washed with water and stained with 0.4% SRB for 30 minutes at room temperature. Cells were washed again with 1% acetic acid and stain was solubilized with 10 mM tris at room temperature and read at an OD of 565 nm. […] The resulting Combination Index (CI) was used as a quantitative measure of the degree of interaction between different drugs. A CI value equal to 1 denotes additivity; CI greater than 1, antagonism; CI less than 1, synergism.
# p21 = test: Western blot, p21 in CRC cell lines; format: cell-based; conditions: SN38 4 nM, 24 hours, HCT116 and HCT8 cells
# Procedure: as §7
# [3] = Human, cited from earlier work
# [4] = cited from earlier work; for AUC0→t: t = 6 h
# [5] = Mouse pharmacokinetics of SN38 after irinotecan from the literature; format: in vivo; conditions: mice, irinotecan 10 mg/kg iv, estimated from literature data
# Procedure: (§9) In vivo SN38 data was evaluated to define the dose of irinotecan to be used since it is the active metabolite of irinotecan and carboxylesterase conversion of irinotecan to SN38 varies between mice and humans. Based on human and mouse pharmacokinetic data gathered from literature data [27]–[30], [35]–[40], we selected a dose of 10 mg/kg of irinotecan to be administered intravenously once weekly (Table 2).
# HT29 cells = test: Sulforhodamine B (SRB) anti-proliferation assay, HT29; format: cell-based
# Procedure: as §8
# [6] = SN38, humans; cited from earlier work
# HCT116 cells = test: Sulforhodamine B (SRB) anti-proliferation assay, HCT116; format: cell-based
# Procedure: as §8
# [7] = Human pharmacokinetics of SN38 after irinotecan from the literature; format: in vivo; conditions: humans, irinotecan doses ranging from 125–350 mg/m^2, from literature data
# Procedure: as §9
# [8] = SN38 after irinotecan 125mg/m^2, 1.5 hr INF, ref 27
# [9] = SN38 after irinotecan 125mg/m^2, 1.5 hr INF, ref 29
# [10] = SN38 after irinotecan 340mg/m^2, 1.5 hr INF
# [11] = SN38 after irinotecan 350mg/m^2, 1 hr INF, Week 4 PK with cetuximab
# [12] = SN38 after irinotecan 350mg/m^2, 1 hr INF
# [13] = SN38 after irinotecan 5mg/kg IV Bolus, Mouse
# [14] = SN38 after irinotecan 10mg/kg IV Bolus, Mouse, ref 39
# [15] = SN38 after irinotecan 20mg/kg IV Bolus, Mouse
# [16] = SN38 after irinotecan 40mg/kg IV Bolus, Mouse
compound,measurement,setting,value
CCc1c2c(nc3ccc(OC(=O)N4CCC(N5CCCCC5)CC4)cc13)-c1cc3c(c(=O)n1C2)COC(=O)[C@]3(O)CC [Irinotecan],"k(0,1)","[1]; K(0,1)IRI",0.25 h⁻¹
same,"k(3,1)",[1]; compartment 1 (irinotecan) to 3 (SN-38),1.91 h⁻¹
same,V1,"[1]; irinotecan central compartment, Dose = 10 mg/kg",2.8 L/kg
same,"k(1,2)",[1],1.15 h⁻¹
same,"k(2,1)",[1],0.87 h⁻¹
same,"k1 (SD), single agent effect","HT29 tumor xenografts; HT29 (BRAF and PIK3CA mutant), IRI, SN38 concentration used in the model",0.0092 (0.0023) mL/ng*day-1
same,"average tumor growth inhibition, TGI","HT29 tumor xenografts; HT29 xenografts, 5 mg/kg everolimus PO daily, 10 mg/kg irinotecan iv once weekly, or combination, 28 days",39%
same,effect on tumor lipids,HT29 tumors,accumulation of lipids
same,"k1 (SD), single agent effect","HCT116 tumor xenografts; HCT116 (KRAS and PIK3CA mutant), IRI, SN38 concentration used in the model",0.0149 (0.0086) mL/ng*day-1
same,"average tumor growth inhibition, TGI","HCT116 tumor xenografts; HCT116 xenografts, 5 mg/kg everolimus PO daily, 10 mg/kg irinotecan iv once weekly, or combination, 28 days",17%
CCc1c2c(nc3ccc(O)cc13)-c1cc3c(c(=O)n1C2)COC(=O)[C@]3(O)CC [SN38],"k(0,3)","[1]; K(0,3)SN38",4.67 h⁻¹
same,V3,[1]; SN-38 central compartment,2.7 L/kg
same,"k(3,4)",[1],1.38 h⁻¹
same,"k(4,3)",[1],5.22 h⁻¹
same,plasma protein binding,[2],96.6–98.6%
same,cleaved PARP (MW 89),cleaved PARP; SN38 treated HCT8 cells,A small amount
same,cleaved PARP (MW 89),cleaved PARP; SN38 treated HT29 or HCT116 cells,not
same,%Growth Inhibition,HCT8 cells,50%
same,effect on p21,p21,increase
same,AUC0→t,[3]; [8],229 ± 108 ng·h/mL
same,Cmax,[3]; [8],26.3 ± 11.9 ng/mL
same,t½,[3]; [8],10.4 ± 3.1 h
same,AUC0→t,[3]; [9],228 ± 149 ng·h/mL
same,Cmax,[3]; [9],27 ± 12 ng/mL
same,t½,[3]; [9],28.5 h
same,AUC0→t,"[3]; SN38 after irinotecan 180mg/m^2, 1.5 hr INF, footnote a: Week 4 PK with cetuximab",222–245 ^a ng·hr/mL
same,AUC0→t,[3]; [10],474 ± 245 ng·h/mL
same,Cmax,[3]; [10],56.0 ± 28.2 ng/mL
same,t½,[3]; [10],21.0 ± 4.3 h
same,AUC0→t,[3]; [11],609±531 ^a ng·hr/mL
same,Cmax,[3]; [11],57±20 ^a ng/mL
same,t½,[3]; [11],15±23 ^a hr
same,AUC0→t,[3]; [12],931 ± 948 ng·h/mL
same,Cmax,[3]; [12],88 ± 26 ng/mL
same,t½,[3]; [12],23 ± 35 h
same,AUC0→∞,[4]; [13],279 ^c ng·hr/mL
same,Cmax,[4]; [13],647 ng/mL
same,Cmax,"[4]; SN38 after irinotecan 10mg/kg IV Bolus, Mouse (row r13), estimated from graph in reference",443–673 ^b ng/mL
same,AUC0→∞,"[4]; SN38 after irinotecan 10mg/kg IV Bolus, Mouse (row r13)",533–1029 ^c ng·hr/mL
same,Cmax,"[4]; SN38 after irinotecan 10mg/kg IV Bolus, Mouse, estimated from graph in reference",435–600 ^b ng/mL
same,t½,"[4]; SN38 after irinotecan 10mg/kg IV Bolus, Mouse, ref 36",2.2 h
same,AUC0→∞,"[4]; SN38 after irinotecan 10mg/kg IV Bolus, Mouse, ref 37",533–759 ^c ng·hr/mL
same,AUC0→∞,[4]; [14],534 ^c ng·hr/mL
same,Cmax,[4]; [14],443 ng/mL
same,AUC0→t,"[4]; SN38 after irinotecan 10mg/kg IV Bolus, Mouse",410±60 (t = 6 h) ng·hr/mL
same,AUC0→t,[4]; [15],710±240 (t = 6 h) ng·hr/mL
same,t½,[4]; [15],3.0 h
same,AUC0→t,[4]; [16],1080±110 (t = 6 h) ng·hr/mL
same,t½,[4]; [16],3.4 h
same,AUCfree of SN38,[5],7.5 to 25.8 ng·h/mL
same,%Growth Inhibition,"HT29 cells; HT29, RAD (20 nM), SN38 (4 nM) or the combination of the two, Figure 2",59%
same,pIC50,HT29 cells; HT29 cells,8.52
same,plasma protein binding,[6],98%
same,%Growth Inhibition,"HCT116 cells; HCT116, RAD (20 nM), SN38 (4 nM) or the combination of the two, Figure 2",23%
same,pIC50,HCT116 cells; HCT116 cells,< 6.52
same,AUCfree of SN38,[7],4.4 to 18.6 ng·h/mL
